Assay results reported in article PMC7587356, “High-Throughput Screening for Inhibitors of the SARS-CoV-2 Protease Using a FRET-Biosensor” (Molecules, 2020).
Counter-ions that a name gives are not always drawn. Like-named read-outs stand apart in the source and are kept apart here.

Molecular target: SARS-CoV-2 3CLpro (Severe acute respiratory syndrome coronavirus 2, UniProt P0DTD1)
Assay: biochemical
Type: biochemical
Design: Replicate_1 / Replicate_2 / mean / mean (LOPAC_screen_w_protease): unit not given here
Details: for inhibition at 5 µM: 4 h
[1] = LOPAC1280 primary screen with protease, 5 µM compound, replicate 1
[2] = LOPAC1280 primary screen with protease, 5 µM compound, replicate 2
[3] = sheet LOPAC_screen_w_protease, primary screen with protease, compound at 5 µM, mean of two replicates, read-out: mean
[4] = sheet LOPAC_screen_w_protease, primary screen with protease, compound at 5 µM, replicate 1, read-out: Replicate_1
[5] = sheet LOPAC_screen_w_protease, primary screen with protease, compound at 5 µM, replicate 2, read-out: Replicate_2
[6] = sheet LOPAC_screen_w_protease, LOPAC1280 at 5 µM, mean of two replicates
[7] = sheet LOPAC_screen_w_protease, LOPAC1280 at 5 µM, replicate 1
[8] = sheet LOPAC_screen_w_protease, LOPAC1280 at 5 µM, replicate 2
[9] = sheet LOPAC_screen_w_protease, primary screen with protease, 5 µM, mean of two replicates
[10] = sheet LOPAC_screen_w_protease, primary screen with protease, 5 µM, replicate 1
[11] = sheet LOPAC_screen_w_protease, primary screen with protease, 5 µM, replicate 2
[12] = LOPAC1280 primary screen with protease, 5 µM compound, mean of the two replicates
[13] = sheet LOPAC_screen_w_protease, LOPAC1280 at 5 µM, mean of two replicates, read-out: mean
[14] = sheet LOPAC_screen_w_protease, LOPAC1280 at 5 µM, replicate 1, read-out: Replicate_1
[15] = sheet LOPAC_screen_w_protease, LOPAC1280 at 5 µM, replicate 2, read-out: Replicate_2

Cl.NNC(N)=O [Semicarbazide hydrochloride]
mean (LOPAC_screen_w_protease) (LOPAC1280 primary screen with protease, 5 µM compound, mean of two replicates): 1.574 | Replicate_1 (LOPAC_screen_w_protease) [1]: 1.447 | Replicate_2 (LOPAC_screen_w_protease) [2]: 1.701

OC(CN1CCC(Cc2ccc(F)cc2)CC1)c1ccc(Cl)cc1 (centres unmarked) [Eliprodil]
inhibition at 5 µM [3]: 2.62% | inhibition at 5 µM [4]: 2.73% | inhibition at 5 µM [5]: 2.52%

O=c1c(O)c(-c2ccc(O)c(O)c2)oc2cc(O)cc(O)c12 [Quercetin dihydrate]
inhibition at 5 µM (read-out: Replicate_1 (LOPAC_screen_w_protease)): 2.76% | inhibition at 5 µM (read-out: Replicate_2 (LOPAC_screen_w_protease)): 1.18%

CCCn1c(=O)[nH]c(=O)c2nc[nH]c21 [3-n-Propylxanthine]
mean (sheet LOPAC_screen_w_protease, primary screen with protease, mean of two replicates): 2.529 | Replicate_1 (sheet LOPAC_screen_w_protease, primary screen with protease, replicate 1): 1.492 | Replicate_2 (sheet LOPAC_screen_w_protease, primary screen with protease, replicate 2): 3.5659

CC(=O)O[C@H]1C[C@@H]2CC[C@@H]3[C@H](CC[C@@]4(C)[C@H]3C[C@H]([N+]3(C)CCCCC3)[C@@H]4OC(C)=O)[C@@]2(C)C[C@@H]1[N+]1(C)CCCCC1 [Pancuronium bromide]
inhibition at 5 µM (sheet LOPAC_screen_w_protease, primary screen of LOPAC1280 at 5 µM with protease, mean of the two replicates, read-out: mean): 3.86% | inhibition at 5 µM (sheet LOPAC_screen_w_protease, primary screen of LOPAC1280 at 5 µM with protease, replicate 1, read-out: Replicate_1): 2.32% | inhibition at 5 µM (sheet LOPAC_screen_w_protease, primary screen of LOPAC1280 at 5 µM with protease, replicate 2, read-out: Replicate_2): 5.41%

CC(Oc1ccc(Oc2cnc3ccc(Cl)cc3n2)cc1)C(=O)O (centres unmarked) [XK469]
mean [6]: 1.32 | Replicate_1 [7]: 0.4248 | Replicate_2 [8]: 2.215

CCC(C)N(C)C(=O)c1cc2ccccc2c(-c2ccccc2Cl)n1 (centres unmarked) [PK 11195]
inhibition at 5 µM [3]: 3.14% | inhibition at 5 µM [4]: 1.87% | inhibition at 5 µM [5]: 4.41%

O=C(O)/C=C\C(=O)O.O=C(O)/C=C\C(=O)O.c1cc(CN2CCCCC2)cc(OCCCNc2nc3ccccc3s2)c1 [SKF 95282 dimaleate]
mean [6]: 0.9471 | Replicate_1 [7]: 0.9833 | Replicate_2 [8]: 0.911

Ro 8-4304
mean [9]: 0.161 | Replicate_1 [10]: -1.418 | Replicate_2 [11]: 1.74

C=CCN1C[C@H](C)N([C@H](c2ccc(C(=O)N(CC)CC)cc2)c2cccc(OC)c2)C[C@H]1C [SNC80]
Replicate_1: -0.408 | Replicate_2: 1.648 | mean: 0.6198

O=[N+]([O-])c1cccc2c(Br)n[nH]c12 [3-Bromo-7-nitroindazole]
mean (LOPAC_screen_w_protease) [12]: 1.829 | Replicate_1 (LOPAC_screen_w_protease) [1]: 2.045 | Replicate_2 (LOPAC_screen_w_protease) [2]: 1.613

Cc1cccc(C)c1N=C1NCCCS1 [Xylazine hydrochloride]
inhibition at 5 µM (read-out: Replicate_1): 0.366% | inhibition at 5 µM (read-out: Replicate_2): 2.25% | inhibition at 5 µM (read-out: mean): 1.31%

COc1cc2nc(N3CCN(C(=O)C4COc5ccccc5O4)CC3)nc(N)c2cc1OC (centres unmarked) [Doxazosin mesylate]
inhibition at 5 µM (LOPAC1280 primary screen with protease, 5 µM compound, replicate 1, read-out: Replicate_1 (LOPAC_screen_w_protease)): 3.96% | inhibition at 5 µM (LOPAC1280 primary screen with protease, 5 µM compound, replicate 2, read-out: Replicate_2 (LOPAC_screen_w_protease)): -0.00681% | mean (LOPAC_screen_w_protease) [12]: 1.977

Cl.NCCc1ccc(S(=O)(=O)F)cc1
mean (sheet LOPAC_screen_w_protease, LOPAC1280 primary screen at 5 µM, with protease, mean of the two replicates): 0.6027 | Replicate_1 (sheet LOPAC_screen_w_protease, LOPAC1280 primary screen at 5 µM, with protease, replicate 1): 1.03 | Replicate_2 (sheet LOPAC_screen_w_protease, LOPAC1280 primary screen at 5 µM, with protease, replicate 2): 0.1751

CCNC(=O)[C@H]1O[C@@H](n2cnc3c(N)ncnc32)[C@H](O)[C@@H]1O [5'-N-Ethylcarboxamidoadenosine]
mean (LOPAC_screen_w_protease) [12]: 1.81 | Replicate_1 (LOPAC_screen_w_protease) [1]: 1.565 | Replicate_2 (LOPAC_screen_w_protease) [2]: 2.055

CC(C)CC(NC(=O)C1OC1C(=O)O)C(=O)NCCCCNC(=N)N (centres unmarked) [E-64]
mean [9]: 0.2813 | Replicate_1 [10]: 1.4489 | Replicate_2 [11]: -0.8864

OCCN1CCN(CCCN2c3ccccc3Sc3ccc(Cl)cc32)CC1 [Perphenazine]
inhibition at 5 µM [13]: 1.14% | inhibition at 5 µM [14]: 0.377% | inhibition at 5 µM [15]: 1.91%

C#CCOC(=O)C1=CCCN(C)C1 [Arecaidine propargyl ester hydrobromide]
inhibition at 5 µM [13]: 1.23% | inhibition at 5 µM [14]: 0.854% | inhibition at 5 µM [15]: 1.62%
